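Growth conditions: 96-well plates. Treatment: test compound, 48 hours, 5 concentrations. Analysis: linear interpolation between bracketing concentrations; unreached endpoints set to highest concentration. TGI: total growth inhibition.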 Where a SMILES comes first, the peptide text is derived from it. [ ]: non-standard residue; d: D form. The star is where a group is joined. Bn2Val = CC(C)[C@@H](C(=O)*)N(Cc1ccccc1)Cc1ccccc1; NHPiperonyl = c1cc2c(cc1CN*)OCO2; NMeV = CN[C@H](C(=O)O)C(C)C; dNMeA = CN[C@H](C)C(=O)O
Experiments:
Assay in all cases: NCI tumour cell line growth inhibition, 48 h
COLO 205 colon = system: COLO 205 colon
HL-60(TB) leukemia = system: HL-60(TB) leukemia
ACHN renal = system: ACHN renal
A498 renal = system: A498 renal
OVCAR-3 ovarian = system: OVCAR-3 ovarian
CCRF-CEM leukemia = system: CCRF-CEM leukemia
SK-OV-3 ovarian = system: SK-OV-3 ovarian
SW-620 colon = system: SW-620 colon
HCC-2998 colon = system: HCC-2998 colon
KM12 colon = system: KM12 colon
TK-10 renal = system: TK-10 renal
LOX IMVI melanoma = system: LOX IMVI melanoma
NCI-H460 lung = system: NCI-H460 lung
MOLT-4 leukemia = system: MOLT-4 leukemia
MDA-MB-231 breast = system: MDA-MB-231 breast
OVCAR-4 ovarian = system: OVCAR-4 ovarian
SK-MEL-28 melanoma = system: SK-MEL-28 melanoma
MDA-N = system: MDA-N
DU-145 prostate = system: DU-145 prostate

Row | Structure (SMILES) | TGI (COLO 205 colon) | TGI (HL-60(TB) leukemia) | TGI (ACHN renal) | TGI (A498 renal) | TGI (OVCAR-3 ovarian) | TGI (CCRF-CEM leukemia) | TGI (SK-OV-3 ovarian) | TGI (SW-620 colon) | TGI (HCC-2998 colon) | TGI (KM12 colon) | TGI (TK-10 renal) | TGI (LOX IMVI melanoma) | TGI (NCI-H460 lung) | TGI (MOLT-4 leukemia) | TGI (MDA-MB-231 breast) | TGI (OVCAR-4 ovarian) | TGI (SK-MEL-28 melanoma) | TGI (MDA-N) | TGI (DU-145 prostate)
1 | COc1ccc2c(c1)CC[C@@H]1C2CC[C@]2(C)C(=N\O)/C(=N/O)CC12 (stereo not given in full) | 31.6 µM | 35.7 µM | 33.6 µM | 34.2 µM | 26.8 µM | 29.9 µM | 32.6 µM | 40.2 µM | 37.8 µM | 42.7 µM | 41.2 µM | 6.11 µM | 12.5 µM | 21.1 µM | – | – | – | – | –
2 | Cn1cc(S(=O)(=O)NC(=O)Nc2ccc(Cl)cc2)c(=O)c2ccc(Cl)cc21 | – | – | > 100 µM | – | > 100 µM | > 100 µM | > 100 µM | > 100 µM | > 100 µM | > 100 µM | > 100 µM | > 100 µM | > 100 µM | > 100 µM | > 100 µM | > 100 µM | > 100 µM | > 100 µM | –
3 | Cc1ccc([N+]2=NC(c3ccc([N+](=O)[O-])cc3)=NN(c3ccccc3)C2)cc1 | > 100 µM | > 100 µM | > 100 µM | > 100 µM | > 100 µM | > 100 µM | – | > 100 µM | > 100 µM | – | > 100 µM | > 100 µM | > 100 µM | > 100 µM | – | 49 µM | > 100 µM | – | –
4 | CC(SC(=S)N(C)C)C(=O)Nc1nnc(-c2ccc(Cl)cc2)o1 (stereo not given) | > 100 µM | – | > 100 µM | > 100 µM | > 100 µM | – | > 100 µM | > 100 µM | > 100 µM | – | > 100 µM | 33.8 µM | > 100 µM | 8.28 µM | > 100 µM | > 100 µM | > 100 µM | – | > 100 µM
5 | O=S(=O)(Nc1nc2ccccc2nc1Nc1cccc2ccccc12)c1ccccc1 | – | – | > 100 µM | – | > 100 µM | – | > 100 µM | > 100 µM | > 100 µM | > 100 µM | 28.9 µM | > 100 µM | > 100 µM | – | 43.9 µM | 5.99 µM | > 100 µM | > 100 µM | > 100 µM
6 | CCOC(=O)CCC(NC(=O)C(CCC(=O)OCC)NC(=O)C(Cc1ccc([N+](=O)[O-])cc1)NC(C)=O)C(=O)NNC(=O)OC(C)(C)C (stereo not given) | > 100 µM | > 100 µM | > 100 µM | > 100 µM | – | – | – | > 100 µM | > 100 µM | > 100 µM | > 100 µM | – | > 100 µM | > 100 µM | > 100 µM | – | > 100 µM | > 100 µM | –
7 | CCOc1ccc(NC(=O)/C(Cc2nc3ccccc3[nH]c2=O)=N\O)cc1 | > 100 µM | – | > 100 µM | > 100 µM | > 100 µM | > 100 µM | > 100 µM | > 100 µM | > 100 µM | > 100 µM | > 100 µM | > 100 µM | > 100 µM | > 100 µM | – | > 100 µM | > 100 µM | – | –
8 | Cc1ccc(N/C(=C(/C(Cl)=C(Cl)Cl)[N+](=O)[O-])n2nnc3ccccc32)cc1 | 28.4 µM | – | 44.9 µM | – | 34.3 µM | 64.5 µM | 35.8 µM | 43.5 µM | 35.1 µM | 47.7 µM | – | – | 34.4 µM | > 100 µM | – | 39.6 µM | 33.8 µM | 38.1 µM | –
9 | C/C(=N\N)C(CN1CCCCC1)C(c1ccccc1)c1c(O)c2ccccc2oc1=O (stereo not given) | > 100 µM | > 100 µM | > 100 µM | > 100 µM | > 100 µM | > 100 µM | > 100 µM | > 100 µM | > 100 µM | > 100 µM | > 100 µM | > 31.6 µM | > 100 µM | > 100 µM | > 100 µM | > 100 µM | > 100 µM | – | > 100 µM
10 | CSC1=NC(=O)CCN1C1OCC(OC(C)=O)C(OC(C)=O)C1OC(C)=O (stereo not given) | > 31.6 µM | > 23 µM | > 31.6 µM | 25.3 µM | 18.6 µM | > 31.6 µM | 29.5 µM | > 31.6 µM | > 31.6 µM | > 31.6 µM | 26 µM | – | > 31.6 µM | > 31.6 µM | 22.4 µM | > 31.6 µM | 25.4 µM | – | > 31.6 µM
11 | CC(C)[C@H](NC(=O)[C@H](C(C)C)N(Cc1ccccc1)Cc1ccccc1)C(=O)N(C)[C@H](C(=O)N1CCC[C@H]1C(=O)N(C)[C@H](C)C(=O)NCc1ccc2c(c1)OCO2)C(C)C (Bn2Val-V[NMeV]P[dNMeA]-NHPiperonyl) | – | 2.8 µM | > 100 µM | – | 57.9 µM | 8.72 µM | > 100 µM | > 100 µM | 37.1 µM | > 100 µM | > 100 µM | > 100 µM | > 100 µM | > 100 µM | > 100 µM | > 100 µM | > 100 µM | 49.4 µM | > 33.2 µM
12 | O=c1oc2cc(O)ccc2c(O)c1C(c1ccc2ccccc2c1)c1c(O)c2ccc(O)cc2oc1=O | > 100 µM | 69.2 µM | – | > 100 µM | > 100 µM | > 100 µM | > 100 µM | > 100 µM | > 100 µM | > 100 µM | > 100 µM | > 100 µM | > 100 µM | > 100 µM | > 100 µM | – | > 100 µM | – | > 100 µM
13 | CSC1=C(C(=O)N(COCC[Si](C)(C)C)c2ccccc2Br)CCC(C(C)(C)C)C1 (stereo not given) | 25.7 µM | 11.8 µM | 51.2 µM | 85.9 µM | 24.4 µM | > 100 µM | > 100 µM | 41 µM | 27 µM | 42.2 µM | > 100 µM | 29.2 µM | 44.1 µM | 21.9 µM | 30.5 µM | > 100 µM | > 100 µM | – | > 100 µM
14 | Cc1nc2ccc(F)cc2c2c1CCN2c1ccccc1 | 27.1 µM | 24.6 µM | 67 µM | 77.2 µM | > 100 µM | 53.2 µM | – | > 100 µM | 38.2 µM | > 100 µM | 71.5 µM | 27.6 µM | 36.1 µM | 52.4 µM | – | > 100 µM | 34.3 µM | – | > 100 µM
